Assay results: patent publication US20060058250A1, “Methods of treating proliferative skin diseases using carbazole derivatives” (Cephalon, Inc., priority 2004, published 2006)

Key:
keratinocytes = conditions: cited from earlier work
[1] = test system: SCID-mouse-human skin model of psoriasis; conditions: cited from earlier work
psoriasis = test: Case report: patient with severe psoriasis treated with oral lestaurtinib; format: in vivo, human; conditions: person, severe psoriasis in the ankle region; oral solution 60 mg bid, 80 mg bid after 29 days; observed on day 60
Protocol: A patient with a history of renal and prostate cancer, arthritic pain and chronic bronchitis presented with severe psoriasis in the ankle region. The patient started treatment with lestaurtinib at a dosage of 60 mg bid. Lestaurtinib was administered twice daily as an oral solution at a concentration of 25 mg/mL in polysorbate 80 NF (10 mL) and propylene glycol USP (10 mL), diluted in juice. The following juices are approved for use to administer lestaurtinib: grape, pineapple, apple, V8® 100% vegetable juice, and orange juice (pulp free). After 29 days from initiation, the dosage was increased to 80 mg bid.

Row | SMILES | block of autocrine NGF loop and keratinocyte apoptosis (keratinocytes) | improvement in the skin condition [1] | remission of psoriasis (psoriasis)
1 | COC(=O)[C@@]1(O)C[C@H]2O[C@]1(C)n1c3ccccc3c3c4c(c5c6ccccc6n2c5c31)C(=O)NC4 [Compound K-252a, K-252a] | can block an autocrine NGF loop and result in keratinocyte apoptosis | noticeable improvement in the skin condition | 
2 | C[C@]12O[C@H](C[C@]1(O)CO)n1c3ccccc3c3c4c(c5c6ccccc6n2c5c31)CNC4=O [lestaurtinib] |  |  | relative remission of psoriasis
